From patent US12102635B2, “Methods of using protein palmitoylations inhibitors” (priority 2021, dated 2024)
Several values for one entry are separate records, joined by “and”; a condition that tells them apart may be missing. Identical values can stand only once.

Tests used:
[1] = system: HEK293T cells; conditions: for observable toxicity: XTT, concentrations below 3 μM, relative to DMSO
[2] = system: SARS-CoV-2; format: cell-based
[3] = system: SARS-CoV-2 spike protein; format: cell-based
[4] = system: SARS-CoV-2 spike protein; format: cell-based, human
[5] = system: SARS-COV-2 spike pseudotyped lentivirus; format: cell-based
[6] = system: Caco-2 cells; conditions: XTT, concentrations below 3 μM, relative to DMSO
[7] = biological target: T1, yeast homolog of DHHC9 (Saccharomyces cerevisiae, UniProt Q06551); conditions: previous screen; cited from earlier work
T1 sequence (Q06551 1-359): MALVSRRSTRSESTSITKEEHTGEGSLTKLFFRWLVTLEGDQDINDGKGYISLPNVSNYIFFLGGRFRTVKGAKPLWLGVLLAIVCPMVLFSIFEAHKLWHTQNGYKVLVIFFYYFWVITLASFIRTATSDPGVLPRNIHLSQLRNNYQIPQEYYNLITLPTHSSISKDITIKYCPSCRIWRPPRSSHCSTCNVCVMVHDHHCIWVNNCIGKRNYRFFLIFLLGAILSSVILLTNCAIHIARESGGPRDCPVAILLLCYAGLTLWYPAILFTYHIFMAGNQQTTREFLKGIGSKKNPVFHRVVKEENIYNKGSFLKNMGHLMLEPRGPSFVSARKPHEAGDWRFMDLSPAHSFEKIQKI
T1 sequence (P41912 1-237 partner): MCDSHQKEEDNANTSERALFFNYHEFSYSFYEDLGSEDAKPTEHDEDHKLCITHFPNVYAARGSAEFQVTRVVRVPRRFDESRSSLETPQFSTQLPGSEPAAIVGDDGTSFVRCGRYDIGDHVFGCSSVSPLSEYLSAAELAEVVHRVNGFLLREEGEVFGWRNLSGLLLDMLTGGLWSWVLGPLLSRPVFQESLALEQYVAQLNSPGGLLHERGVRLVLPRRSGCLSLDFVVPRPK

[8] = system: SARS-CoV-2-mNG; format: cell-based
[9] = system: GAPDH; format: cell-based, human; conditions: 10 μM, HEK293T cells
[10] = system: SARS-COV-2 spike pseudotyped lentivirus; format: cell-based; remark: listed apart in the source
[11] = system: SARS-COV-2 spike pseudotyped lentivirus; format: cell-based; remark: listed apart in the source

Compound | maximal non-toxic concentration [1] [µM] | observable toxicity [1] | reduction viral infection of Vero-E6 cells [2] [%] | reduction of palmitoylation of the spike protein [3] [%] | reduction in syncytia formation [4] | quantity of pseudovirus released from the producer cells (egress) [5] | observable toxicity [6] | inhibition of palmitoylation [7] | mNeonGreen signal [8] | GAPDH palmitoylation [9] | spike palmitoylation [3] | pseudovirus infection (luciferase) [10] | luciferase signal (pseudovirus infection) [11]
CC(C)Cc1ccc(C(C)CN2CCN(CCCC[C@H]3CNCCN3CCc3cc(C(F)(F)F)cc(C(F)(F)F)c3)C[C@@H]2Cc2ccc(O)cc2)cc1 (stereo partly drawn) [Compound 3, 4-(((2S)-4-(4-((S)-1-(3,5-bis(trifluoromethyl)phenethyl)piperazin-2-yl)butyl)-1-(2-(4-isobutylphenyl)propyl)piperazin-2-yl)methyl) phenol] | 3 | no observable toxicity | 76 | 44 | 45% and 50% | do not reduce the quantity of pseudovirus released | no observable toxicity | low micromolar concentrations | dose dependent reduction in mNeonGreen signal | – | – | – | –
CCCCCCCCCCCCCCC(Br)C(=O)O (centres unmarked) [Compound 2-BP, 2-bromopalmitic acid, reference compound] | – | – | – | – | – | – | – | – | dose dependent reduction in mNeonGreen signal | reduced | inhibited spike palmitoylation | significant reduction in pseudovirus infection | reduced luciferase signal significantly
CC(C)Cc1ccc(C(C)CN2CCNC[C@@H]2CCCCN2CCN(CC(C)c3ccc(CC(C)C)cc3)[C@@H](Cc3ccc(O)cc3)C2)cc1 (stereo partly drawn) [Compound 2, 4-(((2S)-1-(2-(4-isobutylphenyl)propyl)-4-(4-((2S)-1-(2-(4-isobutylphenyl)propyl)piperazin-2-yl)butyl)piperazin-2-yl)methyl) phenol] | 3 | no observable toxicity | 60 | 37 | 58% and 60% | do not reduce the quantity of pseudovirus released | no observable toxicity | low micromolar concentrations | dose dependent reduction in mNeonGreen signal | – | – | – | –
